In patent US5830905A, “Compounds, compositions and methods for treatment of hepatitis C” (Viropharma Incorporated, priority 1996, dated 1998):

Target: viral helicase (Hepatitis C virus (isolate H77), UniProt P27958)
Assay: Assay for Helicase Inhibition
Type: biochemical, HCV
Conditions: average of three test results; read-out: IC50 (concentration required to achieve a 50% inhibition of helicase activity)
Protocol: Anti-viral activity was measured on the basis of inhibition of helicase activity. The biological studies of the anti-viral activity of the compounds of the invention are described below.
Example 6 illustrates the efficacy of compounds of the invention in inhibiting the viral helicase activity.
Assay for Helicase Inhibition
The helicase inhibition assay was performed according to methodology of the type described, for example, in: Lain et al., Nucleic Acids Res. 18:7003-7006 (1991); Warrener et al., J. Virol. 69:1720-1726 (1995); Kim et al., Biochem. Biophys. Res. Comm. 214:160-166 (1995). The value given in Table 1 represent the average of three test results in which the concentrations of anti-viral compound required to achieve a 50% inhibition of helicase activity (IC50) were measured.

viral helicase, sequence (P27958 1027-1657): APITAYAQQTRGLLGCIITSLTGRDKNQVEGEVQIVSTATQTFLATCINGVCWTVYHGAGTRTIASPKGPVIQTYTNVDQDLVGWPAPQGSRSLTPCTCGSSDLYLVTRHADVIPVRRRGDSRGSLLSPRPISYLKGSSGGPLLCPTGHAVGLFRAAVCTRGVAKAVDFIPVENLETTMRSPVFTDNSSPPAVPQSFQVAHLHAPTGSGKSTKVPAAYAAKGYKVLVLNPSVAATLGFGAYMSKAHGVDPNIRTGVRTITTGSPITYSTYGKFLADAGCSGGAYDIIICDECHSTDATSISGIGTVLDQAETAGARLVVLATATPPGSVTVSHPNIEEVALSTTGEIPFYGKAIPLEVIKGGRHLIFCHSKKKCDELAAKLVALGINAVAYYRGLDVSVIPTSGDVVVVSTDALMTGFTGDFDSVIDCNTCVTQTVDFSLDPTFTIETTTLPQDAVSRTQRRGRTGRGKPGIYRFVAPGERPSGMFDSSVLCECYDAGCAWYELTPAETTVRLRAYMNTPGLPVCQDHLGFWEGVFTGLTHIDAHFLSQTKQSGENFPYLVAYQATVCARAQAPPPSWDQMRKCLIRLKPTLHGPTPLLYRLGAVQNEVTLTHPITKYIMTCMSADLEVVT

SMILES: c1cc(CN2CCC(C3=N[C@@H]4CCCC[C@H]4N3)CC2)ccc1CN1CCC(C2=N[C@@H]3CCCC[C@H]3N2)CC1 (relative stereo) [Example 3, 1,1'-[1,4-phenylenebis (methylene)]bis(4,4'-trans-(4,5,6,7,8,9-hexahydro)benzimidazoyl)piperidine]
- IC50: 7 µM
